Data published in patent US10759791B2, “Mammalian and bacterial nitric oxide synthase inhibitors” (Northwestern University, priority 2014, dated 2020).
“And” between values parts separate entries of the source, which are not always exact repeats. Identical values can stand only once. Marks after values point to notes of the source that are not given here.

Columns and labels:
[1] = 37° C.
CYP1A2 = CYP1A2 (Homo sapiens (Human), UniProt P05177); experiment: CYP inhibition assay, human liver microsomes; conditions: human, microsomes, pH 7.4
Chain of CYP1A2 (P05177 whole entry): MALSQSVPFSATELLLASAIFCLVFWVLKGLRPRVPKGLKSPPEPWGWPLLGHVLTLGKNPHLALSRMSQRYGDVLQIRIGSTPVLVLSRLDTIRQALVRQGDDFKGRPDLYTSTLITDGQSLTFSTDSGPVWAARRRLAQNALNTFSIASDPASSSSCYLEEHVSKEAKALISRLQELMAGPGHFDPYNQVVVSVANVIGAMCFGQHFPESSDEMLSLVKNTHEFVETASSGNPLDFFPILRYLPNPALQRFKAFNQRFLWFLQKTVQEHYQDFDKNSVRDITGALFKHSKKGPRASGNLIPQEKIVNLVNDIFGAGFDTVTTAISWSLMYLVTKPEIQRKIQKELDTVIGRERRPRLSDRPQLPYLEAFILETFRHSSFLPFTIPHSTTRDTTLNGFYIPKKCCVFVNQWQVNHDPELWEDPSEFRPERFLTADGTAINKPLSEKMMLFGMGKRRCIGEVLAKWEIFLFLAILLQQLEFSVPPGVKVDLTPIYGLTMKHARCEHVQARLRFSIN

in vitro [2] = conditions: human, pH 7.4
in vitro [3] = conditions: human, microsomes, pH 7.4
CYP2C8 = CYP2C8 (Homo sapiens (Human), UniProt P10632); experiment: in vitro; conditions: microsomes, pH 7.4
Chain of CYP2C8 (P10632 whole entry): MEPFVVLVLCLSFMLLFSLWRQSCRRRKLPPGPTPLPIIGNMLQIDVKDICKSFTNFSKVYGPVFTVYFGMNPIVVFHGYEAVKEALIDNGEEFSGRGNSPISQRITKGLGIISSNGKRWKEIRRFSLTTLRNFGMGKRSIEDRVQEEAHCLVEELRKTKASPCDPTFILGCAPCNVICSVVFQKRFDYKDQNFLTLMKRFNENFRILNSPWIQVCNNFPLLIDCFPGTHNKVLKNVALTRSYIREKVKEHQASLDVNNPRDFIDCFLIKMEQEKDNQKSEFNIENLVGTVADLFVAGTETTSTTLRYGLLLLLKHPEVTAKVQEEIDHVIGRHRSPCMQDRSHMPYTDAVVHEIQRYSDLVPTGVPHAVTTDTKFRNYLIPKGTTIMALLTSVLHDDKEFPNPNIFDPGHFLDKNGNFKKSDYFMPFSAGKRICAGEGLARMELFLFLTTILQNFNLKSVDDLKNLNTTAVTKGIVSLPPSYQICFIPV

CYP2D6 = CYP2D6 (Homo sapiens (Human), UniProt P10635); experiment: CYP inhibition assay, human liver microsomes; conditions: pH 7.4
Chain of CYP2D6 (P10635 whole entry): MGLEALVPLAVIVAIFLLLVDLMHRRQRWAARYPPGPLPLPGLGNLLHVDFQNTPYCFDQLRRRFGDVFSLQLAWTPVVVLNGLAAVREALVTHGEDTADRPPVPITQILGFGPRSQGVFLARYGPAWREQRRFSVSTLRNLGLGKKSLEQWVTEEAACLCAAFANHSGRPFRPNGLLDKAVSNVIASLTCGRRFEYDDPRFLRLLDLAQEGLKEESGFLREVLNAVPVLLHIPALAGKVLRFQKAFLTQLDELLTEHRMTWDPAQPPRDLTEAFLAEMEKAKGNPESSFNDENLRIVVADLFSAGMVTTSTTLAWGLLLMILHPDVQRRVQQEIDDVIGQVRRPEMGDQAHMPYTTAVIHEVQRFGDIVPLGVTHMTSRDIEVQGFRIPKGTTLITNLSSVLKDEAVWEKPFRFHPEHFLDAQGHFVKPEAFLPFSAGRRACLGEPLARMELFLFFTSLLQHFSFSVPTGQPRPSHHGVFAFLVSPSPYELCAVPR

CYP2B6 = CYP2B6 (Homo sapiens (Human), UniProt P20813); experiment: in vitro; conditions: microsomes, pH 7.4
CYP2C9 = CYP2C9 (Homo sapiens (Human), UniProt P11712); experiment: in vitro; conditions: microsomes, pH 7.4
Chain of CYP2C9 (P11712 whole entry): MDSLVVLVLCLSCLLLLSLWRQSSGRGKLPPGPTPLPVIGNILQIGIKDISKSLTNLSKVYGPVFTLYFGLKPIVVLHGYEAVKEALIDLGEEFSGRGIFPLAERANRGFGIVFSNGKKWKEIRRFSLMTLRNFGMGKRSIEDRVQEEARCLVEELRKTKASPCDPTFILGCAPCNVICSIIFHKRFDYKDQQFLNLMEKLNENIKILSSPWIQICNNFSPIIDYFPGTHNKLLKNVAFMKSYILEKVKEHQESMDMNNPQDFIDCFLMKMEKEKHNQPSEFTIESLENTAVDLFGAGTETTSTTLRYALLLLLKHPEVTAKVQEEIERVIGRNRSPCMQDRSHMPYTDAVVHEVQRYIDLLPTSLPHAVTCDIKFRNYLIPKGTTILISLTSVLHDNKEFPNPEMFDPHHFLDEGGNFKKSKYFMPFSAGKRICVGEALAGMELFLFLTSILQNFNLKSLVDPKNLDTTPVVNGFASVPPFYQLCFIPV

[4] = human, microsomes, 0 h, 1 μM, pH 7.4

CNCCCc1cncc(CCc2cc(C)cc(N)n2)c1 [Compound 14j, 4-Methyl-6-(2-(5-(3-(methylamino)propyl)pyridin-3-yl)ethyl)pyridin-2-amine]
% Remaining, 90 minutes (−NADPH) (1 μM): 78^b % and 78% | CLh, int (1 μM): 10.4 mL/min/kg | % Remaining, 90 minutes (Buffer) (1 μM, heat inactivated microsomes minus NADPH): 95^b % and 95% | % of the compound lost (1 μM, in 60 min in the absence of NADPH or in 90 min in the presence of NADPH): 23% | Percentage in HLM, Minus NADPH, 0 min [4]: 100% | Percentage in HLM, Plus NADPH, 0 min [4]: 100% | Percentage in HLM, Plus NADPH, 45 min (human, microsomes, […], 1 μM, pH 7.4): 87% | Percentage in HLM, Heat inactivated microsomes, 0 min (minus NADPH (buffer control)): 100% | % compound remaining at 4 h [1]: 90% | inhibition at 10 min, 10 µM (CYP1A2): 9% | recovery at 4 h, 5 μM (in vitro [2]): 91% | half-life at 1 μM (in vitro [3]): > 1 h | inhibition at 10 µM (CYP2C8): 2% | inhibition at 10 min, 10 µM (CYP2D6): 6% | inhibition at 10 µM (CYP2B6): 8% | inhibition at 10 min, 10 µM (CYP2C9): 0%
